# Patent US6177592A, “Compounds” (priority 1997, dated 2001)
# What was measured:
# RAW264.7 cells = test: Inhibition of LPS-caused cell damage in RAW264.7; type: cell-based, mouse; conditions: RAW 264.7
# Procedure: Inhibition activity of GM to NO production and to cell damage was measured as follows using mouse macrophage cell strain RAW264.7 cells (ATCC TIB 71) and LPS.
# Dulbecco-modified Eagle's medium (manufactured by Life Technologies Oriental; 11054-020) containing 2 mM of L-glutamine (manufactured by Life Technologies Oriental; 25030-149) containing no Phenol Red containing 5 ml of 10% fetal calf serum (manufactured by Gibco) containing 1.5×10^6 cells of RAW 264.7 was incubated in a six-well tissue culture plate in the presence of 5% carbon dioxide gas at 37° C. for 12 hours, 50μl of 50μg/ml LPS (manufactured by Sigma; L-2012) was added, then each 50 μl of 250 )i M Mn or 100 μH GM was added to each well, incubation was further continued for additional 12 hours and, after that, NO2^- produced by oxidation of NO in the medium and amount of viable cell numbers were measured. Incidentally, a sect-Lon where no LPS was added and a section where no GM was added were prepared as controls.
# NIH 3T3/E7-2 = test: Colony formation of HPV16 E7-transformed NIH 3T3/E7-2 cells; type: cell-based
# Procedure: (1) Transformation to Escherichia coli HB101 was conducted by control plasmid pcD2-Y expressing G418-resisting gene [Mol. Cell. Biol., volume 7, pages 2745-2752 (1987)] and plasmid pcD2-16E7 which was capable of expressing both HPV 16 type E7 and G418-resisting gene [Jpn. J. Cancer Res., volume 82, pages 1340-1343 (1991)], then incubation was conducted in an L-broth medium and plasmid was extracted from the collected cells and purified by a cesium chloride density gradient ultracentrifugation to give vector plasmid for introduction of gene.
# The purified plasmid (10 μg) was introduced into NIH 3T3 cells using a cationic liposome (TransIT LT-1, manufactured by Takara Shuzo), the cells were selected at 37° C. under the condition of 5% CO2 for two weeks in a Dulbecco-modified Eagle's medium containing 10% calf serum which contained 0.4 mg/ml of G418 (Gibco) and the resulting colonies were cloned to establish each nine strains of NIH 3T3 cells into which control vector was introdcd and NIH 3T3 cells which was cancerated with HPV 16 type E7.
# The cells strains into which E7 was introduced were named NIH 3T3/E7-1, NIH 3T3/E7-2, NIH 3T3/E7-3, NIH 3T3/E7-4, NIH 3T3/E7-5, NIH 3T3/E7-6, NIH 3T3/E7-7, NIH 3T3/E7-8 and NIH 3T3/E7-9. […]
# A part of the suspension was taken out and cell density was counted by a Neubauer's hemocytometer. […]
# p24 antigen = p24 antigen in culture supernatant of CEM-3B cells; type: cell-based, HIV-1IIIB; conditions: one day
# Procedure: (2) Concentration of p24 antigen contained in the supernatant liquid in the culture after incubation of the CEM-3B cells mentioned in Example 15-(1) for one day was measured.
# [1] = tested on: carrageenan-induced pedal edema; test: Carrageenan-induced pedal edema in Lewis rats; type: in vivo; conditions: Rattus norvegicus, 3 h; oral; three hours after carrageenan; read-out: dose with significant inhibition of pedal edema
# Procedure: Carrageenan-induced pedal edema models which were animal model of chronic articular rheumatism were prepared as follows using male Lewis rats [purchased from Seac-Yoshitomi when five weeks age (body weight: about 130 g) followed by subjecting to a preliminary breeding for one week at our end] and the test drugs were evaluated.
# To the rats which were fasted since 18 hours before initiation of the experiment was orally administered with 10 ml/kg of GM which was prepared with distilled water (manufactured by Otsuka Pharmaceutical) to make 10 and 100 mg/ml.
# After 0.5 hour from administration of the test drug, 100 μl/rat of 1% suspension of carrageenan (manufactured by Wako) in a physiologically saline solution (manufactured by Otsuka Pharmaceutical) was injected to right paw to induce pedal edema. After three hours from the carrageenan injection, volume of right paw of the rat was measured by a pedal volume measuring device (manufactured by UGO BASILE). Incidentally, the measured value was expressed by calculating the increasing rate from the right paw volume of each rat measured before the carrageenan administration.
# Meth A cells = test: Meth A subcutaneous tumor growth in BALB/c mice; type: in vivo, mouse; conditions: 5 mg/kg/day s.c., five days; after two weeks
# Procedure: GM was diluted with a physiological saline solution to a predetermined concentration and subjected to the following tests.
# (1) Meth A cells (2×10^6 cells/mouse) were subcutaneously injected to abdomen of female BALB/c mice (body weight: about 20 g) of eight weeks age. After that, GM (5 mg/kg/day) was subcutaneously injected for consecutive five days to the same site. On the other hand, a physiological saline solution was subcutaneously injected to the control group by the same manner. After two weeks, the cancer tissues generated in abdomen of the mice were excised and their weight were measured.
# Molt-3 cells = test: Growth of Molt-3 cells (MTT); type: cell-based, human; conditions: 24 hours
# Procedure: (1) Jurkat cells (ATCC TIB-152) and Molt-3 cells (ATCC CRL-1552) which were human T cell leukemia cell stain were incubated in an RPMI 1640 medium (manufactured by Gibco BRL) containing 10% fetal calf serum (FCS, manufactured by Bio Whittaker) at 37° C. in the presence of 5% CO2 and the cells were then suspended in the above-mentioned medium containing 0, 5, 10 or 20 μM of GM to make the cell numbers 5×10^5 cells/ml followed by incubating for 24 hours. Cell growth was measured by an MTT method [Mosmann, et al.: J. Immunol. Methods, volume 65, pages 55-63 (1983)] wherein degree of cell growth was determined by the absorbance at 560 nm.
smiles,measurement,setting,value
"N[C@@H](CCC(=O)N[C@@H](CSC1C=C(O)C(=O)C1)C(=O)NCC(=O)O)C(=O)O (stereo partly drawn) [GM, 2-hydroxy-4-glutathion-S-yl-2-cyclopenten-1-one]",inhibition of cell damage caused by LPS,RAW264.7 cells,inhibited the cell damage in RAW 264.7 cells caused by LPS
same,sensitivity of E7-introduced cells compared with control cells (in words),NIH 3T3/E7-2; 5 μM,high sensitivity to GM as compared with the control cells
same,Numbers of Colonies (Mean Value ± SD),"NIH 3T3/E7-2; 5 μM GM, nine days, control 67.3 ± 3.2",13.3 ± 3.2
same,p24 concentration in supernatant,p24 antigen,the p24 concentration decreased depending upon the concentration of the added GM
same,minimal effective dose,[1],≥ 100 mg/kg
same,inhibiting action to the growth of cancer (weight of cancer tissues),Meth A cells,significant inhibiting action to the growth of cancer
same,effect in the growth of cells,Molt-3 cells; 5 μM or less,no significant effect in the growth of cells
same,inhibition at 10 µM,"Molt-3 cells; Homo sapiens, 10 μM, read-out: inhibition of cell growth",~50%
same,inhibition at 20 µM,"Molt-3 cells; Homo sapiens, 20 μM, read-out: inhibition of cell growth",≥ 75%
